Values of other authors as cited in US20040127531A1, “Adhesive coated sheet for dermal delivery of a selective cyclooxygenase-2 inhibitor” (priority 2002, published 2004).

Assays:
[1] = target: COX-1 (Homo sapiens, UniProt P23219)
[2] = target: T1, COX-2 (Homo sapiens, UniProt P35354)
T1 sequence (P35354 18-604): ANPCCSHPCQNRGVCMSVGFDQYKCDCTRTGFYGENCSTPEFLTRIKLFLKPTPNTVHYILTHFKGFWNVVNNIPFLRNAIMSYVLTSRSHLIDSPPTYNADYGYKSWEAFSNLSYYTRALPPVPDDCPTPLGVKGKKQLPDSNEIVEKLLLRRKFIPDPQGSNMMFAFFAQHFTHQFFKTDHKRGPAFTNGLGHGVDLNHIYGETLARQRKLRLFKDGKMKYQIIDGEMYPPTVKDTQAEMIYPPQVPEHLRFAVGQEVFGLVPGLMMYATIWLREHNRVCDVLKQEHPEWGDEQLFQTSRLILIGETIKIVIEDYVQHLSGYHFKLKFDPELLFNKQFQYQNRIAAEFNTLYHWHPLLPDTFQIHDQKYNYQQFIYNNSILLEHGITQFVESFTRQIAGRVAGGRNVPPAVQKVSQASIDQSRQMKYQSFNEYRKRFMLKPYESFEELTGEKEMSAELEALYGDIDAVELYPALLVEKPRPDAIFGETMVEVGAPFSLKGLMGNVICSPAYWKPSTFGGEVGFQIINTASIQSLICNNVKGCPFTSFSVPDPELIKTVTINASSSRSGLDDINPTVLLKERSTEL

COX-1, sequence (P23219 24-599): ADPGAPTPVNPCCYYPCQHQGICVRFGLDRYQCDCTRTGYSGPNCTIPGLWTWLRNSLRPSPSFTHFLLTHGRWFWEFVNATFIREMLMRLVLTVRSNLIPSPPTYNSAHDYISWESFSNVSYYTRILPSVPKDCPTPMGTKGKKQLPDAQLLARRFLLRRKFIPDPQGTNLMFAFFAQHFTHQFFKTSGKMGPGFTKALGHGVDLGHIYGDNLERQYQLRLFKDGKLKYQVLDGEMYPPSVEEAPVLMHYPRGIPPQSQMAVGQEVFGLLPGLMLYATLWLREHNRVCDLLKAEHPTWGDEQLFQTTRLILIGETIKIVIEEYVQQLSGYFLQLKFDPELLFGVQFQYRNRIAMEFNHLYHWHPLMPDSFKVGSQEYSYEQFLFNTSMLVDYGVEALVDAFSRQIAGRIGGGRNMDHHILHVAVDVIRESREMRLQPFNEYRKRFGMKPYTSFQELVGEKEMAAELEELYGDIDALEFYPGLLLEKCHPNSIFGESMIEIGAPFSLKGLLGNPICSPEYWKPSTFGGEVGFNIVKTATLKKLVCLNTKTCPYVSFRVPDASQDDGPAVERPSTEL

Row | SMILES | in vitro inhibitory activity against COX-1 [1] | in vitro inhibitory activity against COX-2 [2]
1 | CCC(=O)NS(=O)(=O)c1ccc(-c2c(-c3ccccc3)noc2C)cc1 [Parecoxib, N-[[4-(5-methyl-3-phenylisoxazol-4-yl)phenyl]sulfonyl]propanamide] | weak | weak
2 | Cc1onc(-c2ccccc2)c1-c1ccc(S(N)(=O)=O)cc1 [valdecoxib, 4-[5-methyl-3-phenylisoxazol-4-yl]benzenesulfonamide] | weak | 
